Experimental data taken from patent US9067894B1, “Compound, composition, and method of activating GIRK potassium channel and use of same for treating conditions of interest” (Vanderbilt University, priority 2013, dated 2015).

Legend:
[1] = Plasma protein binding, equilibrium dialysis; assay type: in vitro ADME, mouse; details: murine plasma
Experimental: Plasma Protein Binding. […] Briefly plasma (220 μL) was added to the 96-well plate containing test article (5 μL) and mixed thoroughly. Subsequently, 200 μl of the plasma-test article mixture was transferred to the cis chamber (red) of the RED plate, with an accompanying 350 μL of phosphate buffer (25 mM, pH 7.4) in the trans chamber. The RED plate was sealed and incubated 4 h at 37° C. with shaking. At completion, 50 μL aliquots from each chamber were diluted 1:1 (50 μL) with either plasma (cis) or buffer (trans) and transferred to a new 96-well plate, at which time ice-cold acetonitrile (2 volumes) was added to extract the matrices. The plate was centrifuged (3000 rcf, 10 min) and supernatant solutions transferred to a new 96-well plate. The sealed plate was stored at −20° C. until LC/MS/MS analysis.
Liquid Chromatography/Mass Spectrometry Analysis. In vitro experiments. VU0456810 was analyzed on a Thermo Electron TSQ Quantum Ultra triple quad mass spectrometer (San Jose, Calif.) via electrospray ionization (ESI) with two Themo Electron Accella pumps (San Jose, Calif.), and a Leap Technologies CTC PAL autosampler (Carrboro, N.C.). Analytes were separated by gradient elution on a dual column system with two Thermo Hypersil Gold (2.1×30 mm, 1.9 μm) columns (San Jose, Calif.) at 40° C. HPLC mobile phase A was 0.1% formic acid in water and mobile phase B was 0.1% formic acid in acetonitrile. […]

Adenosine A1 = biological target: T1, Adenosine A1 (Homo sapiens, UniProt P30542); assay: Radioligand displacement (Ricerca); assay type: binding
T1 construct: Ricerca (contract assay)

Adrenergic α1B = biological target: T2, Adrenergic α1B (Rattus norvegicus, UniProt P15823); assay: Radioligand displacement (Ricerca); assay type: binding
T2 construct: Ricerca (contract assay)

Adrenergic β1 = biological target: T3, Adrenergic β1 (Homo sapiens, UniProt P08588); assay: Radioligand displacement (Ricerca); assay type: binding
T3 construct: Ricerca (contract assay)

Bradykinin B2 = biological target: T4, Bradykinin B2 (Homo sapiens, UniProt P30411); assay: Radioligand displacement (Ricerca); assay type: binding
T4 construct: Ricerca

Glucocorticoid = biological target: T5, Glucocorticoid (Homo sapiens, UniProt P04150); assay: Radioligand displacement (Ricerca); assay type: binding
T5 construct: Ricerca

Glutamate (kainate) = assay: Radioligand displacement (Ricerca); assay type: binding, rat; details: 10 μM
Glutamate (NMDA agonism) = assay: Radioligand displacement (Ricerca); assay type: binding, rat; details: 10 μM
Glutamate (NMDA, PCP) = assay: Radioligand displacement (Ricerca); assay type: binding, rat; details: 10 μM
Imidazoline, I2 = assay: Radioligand displacement (Ricerca); assay type: binding, rat; details: 10 μM
Melatonin MT1 = biological target: T6, Melatonin MT1 (Homo sapiens, UniProt P48039); assay: Radioligand displacement (Ricerca); assay type: binding
T6 construct: Ricerca (contract laboratory that ran the panel)

Muscarinic M3 = biological target: T7, Muscarinic M3 (Homo sapiens, UniProt P20309); assay: Radioligand displacement (Ricerca); assay type: binding
T7 construct: Ricerca (contract laboratory that ran the panel)

Neuropeptide Y (Y2) = biological target: T8, Neuropeptide Y (Y2) (Homo sapiens, UniProt P49146); assay: Radioligand displacement (Ricerca); assay type: binding
T8 construct: Ricerca (contract laboratory that ran the panel)

Opiate (KOP) = biological target: T9, Opiate (KOP) (Homo sapiens, UniProt P41145); assay: Radioligand displacement (Ricerca); assay type: binding
T9 construct: Ricerca (contract laboratory that ran the panel)

Opiate (MOP) = biological target: T10, Opiate (MOP) (Homo sapiens, UniProt P35372); assay: Radioligand displacement (Ricerca); assay type: binding
T10 construct: Ricerca (contract laboratory that ran the panel)

Potassium channel KATP = assay: Radioligand displacement (Ricerca); assay type: binding, human; details: 10 μM
Tachykinin NK1 = biological target: T11, Tachykinin NK1 (Homo sapiens, UniProt P25103); assay: Radioligand displacement (Ricerca); assay type: binding
T11 construct: Ricerca (contract panel)

Thyroid hormone = assay: Radioligand displacement (Ricerca); assay type: binding, human; details: 10 μM

T5 sequence (P04150 whole entry): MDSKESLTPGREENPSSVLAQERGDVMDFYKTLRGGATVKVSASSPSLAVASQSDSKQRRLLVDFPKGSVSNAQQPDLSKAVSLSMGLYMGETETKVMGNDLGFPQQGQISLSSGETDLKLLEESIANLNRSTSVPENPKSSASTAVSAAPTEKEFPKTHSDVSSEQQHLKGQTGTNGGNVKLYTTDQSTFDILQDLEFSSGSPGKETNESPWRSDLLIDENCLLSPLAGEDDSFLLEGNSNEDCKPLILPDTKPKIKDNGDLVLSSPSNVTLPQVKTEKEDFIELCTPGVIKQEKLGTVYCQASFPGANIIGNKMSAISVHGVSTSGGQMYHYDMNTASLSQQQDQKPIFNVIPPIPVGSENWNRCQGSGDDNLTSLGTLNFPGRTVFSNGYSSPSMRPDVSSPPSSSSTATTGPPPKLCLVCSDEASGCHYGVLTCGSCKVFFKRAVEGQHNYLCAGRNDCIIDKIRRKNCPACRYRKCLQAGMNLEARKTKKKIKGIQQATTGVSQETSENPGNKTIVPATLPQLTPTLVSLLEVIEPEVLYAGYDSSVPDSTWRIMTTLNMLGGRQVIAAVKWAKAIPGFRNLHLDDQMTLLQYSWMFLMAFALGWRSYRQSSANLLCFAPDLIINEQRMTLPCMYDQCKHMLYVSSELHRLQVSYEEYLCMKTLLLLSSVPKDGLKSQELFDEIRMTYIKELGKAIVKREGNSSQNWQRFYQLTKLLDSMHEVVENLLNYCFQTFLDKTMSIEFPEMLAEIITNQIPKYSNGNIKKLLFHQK
T9 sequence (P41145 whole entry): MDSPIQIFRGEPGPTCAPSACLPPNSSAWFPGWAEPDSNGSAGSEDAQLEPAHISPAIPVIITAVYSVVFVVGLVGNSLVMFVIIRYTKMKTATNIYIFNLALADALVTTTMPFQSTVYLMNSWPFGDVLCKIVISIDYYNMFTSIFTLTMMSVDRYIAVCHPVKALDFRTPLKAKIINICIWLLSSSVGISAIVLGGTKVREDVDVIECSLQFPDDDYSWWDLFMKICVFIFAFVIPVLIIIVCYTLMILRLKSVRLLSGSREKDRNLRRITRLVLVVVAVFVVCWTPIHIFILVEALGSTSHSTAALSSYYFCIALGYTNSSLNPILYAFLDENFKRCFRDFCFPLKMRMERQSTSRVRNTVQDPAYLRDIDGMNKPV
T3 sequence (P08588 whole entry): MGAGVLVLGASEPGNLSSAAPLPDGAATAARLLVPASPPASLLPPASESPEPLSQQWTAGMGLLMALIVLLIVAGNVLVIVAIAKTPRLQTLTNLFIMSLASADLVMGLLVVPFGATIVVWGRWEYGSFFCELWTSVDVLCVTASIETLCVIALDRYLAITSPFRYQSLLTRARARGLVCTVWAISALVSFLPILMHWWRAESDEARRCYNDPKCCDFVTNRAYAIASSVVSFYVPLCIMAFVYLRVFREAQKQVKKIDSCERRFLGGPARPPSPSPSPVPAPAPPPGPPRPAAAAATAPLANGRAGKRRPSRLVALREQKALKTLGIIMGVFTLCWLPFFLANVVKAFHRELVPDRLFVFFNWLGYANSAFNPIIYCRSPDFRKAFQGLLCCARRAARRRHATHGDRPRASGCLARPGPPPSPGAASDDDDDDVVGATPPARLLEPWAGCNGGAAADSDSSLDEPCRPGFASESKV
T8 sequence (P49146 whole entry): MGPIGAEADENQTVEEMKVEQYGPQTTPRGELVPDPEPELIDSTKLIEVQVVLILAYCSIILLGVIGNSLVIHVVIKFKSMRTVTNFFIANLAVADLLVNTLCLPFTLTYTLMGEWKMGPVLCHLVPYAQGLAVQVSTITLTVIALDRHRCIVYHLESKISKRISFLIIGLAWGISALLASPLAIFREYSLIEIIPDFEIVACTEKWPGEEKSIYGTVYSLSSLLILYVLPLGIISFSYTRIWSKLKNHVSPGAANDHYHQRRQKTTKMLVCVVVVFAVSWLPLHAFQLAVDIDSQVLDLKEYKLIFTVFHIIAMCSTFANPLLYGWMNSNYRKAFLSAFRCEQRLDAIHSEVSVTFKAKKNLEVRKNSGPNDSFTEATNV
T1 sequence (P30542 whole entry): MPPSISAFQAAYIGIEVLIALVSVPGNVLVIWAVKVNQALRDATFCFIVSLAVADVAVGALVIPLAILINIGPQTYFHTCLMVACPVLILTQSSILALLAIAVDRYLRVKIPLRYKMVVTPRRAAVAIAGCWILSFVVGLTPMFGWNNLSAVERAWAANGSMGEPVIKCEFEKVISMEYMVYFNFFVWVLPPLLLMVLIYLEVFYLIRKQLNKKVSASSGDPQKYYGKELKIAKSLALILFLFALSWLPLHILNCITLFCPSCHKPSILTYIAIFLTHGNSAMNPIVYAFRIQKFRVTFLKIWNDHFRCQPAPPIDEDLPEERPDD
T6 sequence (P48039 whole entry): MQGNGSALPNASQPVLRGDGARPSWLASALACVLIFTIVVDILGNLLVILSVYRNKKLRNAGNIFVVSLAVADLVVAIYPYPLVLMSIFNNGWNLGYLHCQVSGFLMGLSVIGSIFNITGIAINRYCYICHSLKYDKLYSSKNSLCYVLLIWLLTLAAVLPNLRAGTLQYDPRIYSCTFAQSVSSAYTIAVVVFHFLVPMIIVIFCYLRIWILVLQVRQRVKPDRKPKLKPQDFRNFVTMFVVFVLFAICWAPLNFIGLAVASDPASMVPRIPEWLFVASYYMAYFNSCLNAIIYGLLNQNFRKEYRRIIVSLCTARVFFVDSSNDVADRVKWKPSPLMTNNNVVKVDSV
T4 sequence (P30411 whole entry): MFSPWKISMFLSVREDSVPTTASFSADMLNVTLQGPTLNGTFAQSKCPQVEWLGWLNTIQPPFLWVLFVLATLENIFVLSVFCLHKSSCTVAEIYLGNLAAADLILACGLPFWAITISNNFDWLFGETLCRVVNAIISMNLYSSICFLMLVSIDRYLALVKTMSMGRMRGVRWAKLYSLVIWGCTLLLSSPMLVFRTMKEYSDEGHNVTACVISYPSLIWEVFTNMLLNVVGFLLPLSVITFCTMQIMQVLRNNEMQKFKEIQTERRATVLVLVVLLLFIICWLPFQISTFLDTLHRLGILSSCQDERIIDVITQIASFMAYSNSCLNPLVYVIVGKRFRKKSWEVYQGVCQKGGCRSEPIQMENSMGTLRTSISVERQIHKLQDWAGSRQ
T2 sequence (P15823 whole entry): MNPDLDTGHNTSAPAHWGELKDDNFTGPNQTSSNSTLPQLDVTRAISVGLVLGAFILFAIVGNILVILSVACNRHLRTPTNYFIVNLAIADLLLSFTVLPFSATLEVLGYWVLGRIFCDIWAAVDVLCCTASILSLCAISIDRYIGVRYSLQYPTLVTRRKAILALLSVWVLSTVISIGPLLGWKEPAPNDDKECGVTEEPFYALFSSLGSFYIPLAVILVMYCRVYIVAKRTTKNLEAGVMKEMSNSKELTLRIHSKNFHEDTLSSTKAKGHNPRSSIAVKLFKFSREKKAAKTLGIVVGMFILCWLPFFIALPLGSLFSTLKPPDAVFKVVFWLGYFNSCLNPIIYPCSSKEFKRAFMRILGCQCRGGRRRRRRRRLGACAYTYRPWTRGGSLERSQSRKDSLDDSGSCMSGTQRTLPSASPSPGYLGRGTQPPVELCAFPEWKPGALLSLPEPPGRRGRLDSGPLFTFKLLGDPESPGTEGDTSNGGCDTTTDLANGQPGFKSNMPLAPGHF
T7 sequence (P20309 whole entry): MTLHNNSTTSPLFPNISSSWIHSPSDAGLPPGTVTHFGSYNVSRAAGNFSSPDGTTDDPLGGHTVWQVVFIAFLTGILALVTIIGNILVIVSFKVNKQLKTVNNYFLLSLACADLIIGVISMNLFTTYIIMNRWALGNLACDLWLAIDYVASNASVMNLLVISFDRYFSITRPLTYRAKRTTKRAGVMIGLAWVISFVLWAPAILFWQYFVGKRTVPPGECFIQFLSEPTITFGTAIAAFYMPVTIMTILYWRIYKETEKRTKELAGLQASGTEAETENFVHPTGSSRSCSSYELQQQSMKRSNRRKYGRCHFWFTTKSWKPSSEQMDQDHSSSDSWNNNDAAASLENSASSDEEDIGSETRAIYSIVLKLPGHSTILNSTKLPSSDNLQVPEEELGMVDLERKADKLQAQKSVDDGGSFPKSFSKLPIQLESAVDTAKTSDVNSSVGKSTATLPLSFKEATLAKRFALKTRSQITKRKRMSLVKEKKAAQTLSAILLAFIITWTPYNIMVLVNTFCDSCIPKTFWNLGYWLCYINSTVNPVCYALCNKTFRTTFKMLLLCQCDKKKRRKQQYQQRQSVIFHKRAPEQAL
T11 sequence (P25103 whole entry): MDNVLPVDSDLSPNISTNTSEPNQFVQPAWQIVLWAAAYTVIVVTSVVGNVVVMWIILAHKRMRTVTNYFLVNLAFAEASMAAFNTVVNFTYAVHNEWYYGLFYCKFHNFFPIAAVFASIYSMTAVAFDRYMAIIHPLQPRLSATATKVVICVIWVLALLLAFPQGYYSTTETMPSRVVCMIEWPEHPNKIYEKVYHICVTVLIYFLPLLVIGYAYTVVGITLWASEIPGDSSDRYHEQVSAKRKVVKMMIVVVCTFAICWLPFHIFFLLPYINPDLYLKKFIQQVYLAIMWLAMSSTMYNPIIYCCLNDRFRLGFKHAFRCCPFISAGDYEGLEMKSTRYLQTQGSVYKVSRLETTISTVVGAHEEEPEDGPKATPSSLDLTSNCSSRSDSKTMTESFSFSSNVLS

Cc1cc(NC(=O)Nc2ccc(F)c(F)c2)n(-c2ccccc2)n1 [VU0456810, 1-(3,4-difluorophenyl)-3-(3-methyl-1-phenyl-1H-pyrazol-5-yl)urea]
Plasma Protein Binding [1]: 3 % fu | inhibition at 10 µM (Adenosine A1): 6% | inhibition at 10 µM (Adrenergic α1B): 1% | inhibition at 10 µM (Adrenergic β1): 0% | inhibition at 10 µM (Bradykinin B2): -1% | inhibition at 10 µM (Glucocorticoid): 2% | % Inhibition (Glutamate (kainate)): 1% | % Inhibition (Glutamate (NMDA agonism)): 21% | % Inhibition (Glutamate (NMDA, PCP)): 1% | % Inhibition (Imidazoline, I2): 20% | inhibition at 10 µM (Melatonin MT1): 11% | inhibition at 10 µM (Muscarinic M3): 13% | inhibition at 10 µM (Neuropeptide Y (Y2)): -5% | inhibition at 10 µM (Opiate (KOP)): 1% | inhibition at 10 µM (Opiate (MOP)): 21% | % Inhibition (Potassium channel KATP): 2% | inhibition at 10 µM (Tachykinin NK1): 3% | % Inhibition (Thyroid hormone): 8%
